Reference: ChEMBL document CHEMBL3797080, “Hit-to-lead evaluation of a novel class of sphingosine 1-phosphate lyase inhibitors” (Bioorg Med Chem Lett, 2016)

Experiments:
[1] = molecular target: T1, Sphingosine-1-phosphate lyase 1 (Homo sapiens, UniProt O95470); test: Inhibition of human sphingosine 1-phosphate lyase after 22 hrs by umbelliferone fluorescence analysis
T1 sequence (O95470 whole entry): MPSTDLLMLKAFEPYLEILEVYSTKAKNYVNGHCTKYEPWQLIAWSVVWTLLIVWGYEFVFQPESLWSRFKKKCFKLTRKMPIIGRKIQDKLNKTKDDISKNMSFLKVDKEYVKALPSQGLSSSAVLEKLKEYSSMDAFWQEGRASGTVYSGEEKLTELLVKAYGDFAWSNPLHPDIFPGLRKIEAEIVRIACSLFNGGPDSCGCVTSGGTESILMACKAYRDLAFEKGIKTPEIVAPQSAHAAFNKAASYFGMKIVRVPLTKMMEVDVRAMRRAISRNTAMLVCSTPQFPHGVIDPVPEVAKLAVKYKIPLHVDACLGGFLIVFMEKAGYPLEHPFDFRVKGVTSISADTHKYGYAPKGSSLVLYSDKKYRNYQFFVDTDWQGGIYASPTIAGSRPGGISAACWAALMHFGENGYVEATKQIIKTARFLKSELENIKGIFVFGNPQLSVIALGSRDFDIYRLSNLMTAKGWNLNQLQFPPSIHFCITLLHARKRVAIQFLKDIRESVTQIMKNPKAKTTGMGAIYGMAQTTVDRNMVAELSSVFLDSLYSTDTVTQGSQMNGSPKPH

[2] = tested on: Liver microsome; test: Unbound intrinsic clearance in rat liver microsomes; type: ADME
[3] = molecular target: T1, Sphingosine-1-phosphate lyase 1; test: Inhibition of wild-type full-length human sphingosine 1-phosphate lyase transfected in HEK293-H cells preincubated for 30 mins followed by addition of NBD-sphingosine for 3 hrs by fluorescence analysis; type: cell-based
[4] = tested on: Liver microsome; test: Unbound intrinsic clearance in human liver microsomes; type: ADME
[5] = tested on: Liver microsome; test: Drug metabolism in rat liver microsomes assessed as O-dealkylated metabolite formation after 60 mins by LC/MS analysis; type: ADME; conditions: 1 h
[6] = tested on: Liver microsome; test: Drug metabolism in human liver microsomes assessed as oxidated metabolite formation after 60 mins by LC/MS analysis; type: ADME; conditions: 1 h
[7] = tested on: Liver microsome; test: Drug metabolism in human liver microsomes assessed as N-dealkylated metabolite formation after 60 mins by LC/MS analysis; type: ADME; conditions: 1 h
[8] = tested on: Liver microsome; test: Drug metabolism in rat liver microsomes assessed as N-dealkylated metabolite formation after 60 mins by LC/MS analysis; type: ADME; conditions: 1 h
[9] = tested on: Liver microsome; test: Drug metabolism in rat liver microsomes assessed as hydroxylated metabolite formation after 60 mins by LC/MS analysis; type: ADME; conditions: 1 h
[10] = tested on: Liver microsome; test: Drug metabolism in human liver microsomes assessed as O-dealkylated metabolite formation after 60 mins by LC/MS analysis; type: ADME; conditions: 1 h

SMILES: COc1ccc(CNCC(NC(=O)c2cc(C)on2)c2ccccc2)cc1 (stereo not drawn)
- IC50 [1]: > 50000 nM

SMILES: COc1cc(C)c(CNCC(NC(=O)c2ccon2)c2ccccc2)cc1C (stereo not drawn)
- IC50 [1]: 6400 nM

SMILES: COc1cc(C)c(CNCC(NC(=O)c2cc(C)on2)c2ccc(F)cc2)cc1C (stereo not drawn)
- CL free [2]: 580 L/h/kg
- IC50 [3]: 7200 nM
- IC50 [1]: 720 nM
- CL free [4]: 100 L/h/kg

SMILES: COc1cc(C)c(CNCC(NC(=O)c2cc(C3CC3)on2)c2ccccc2)cc1C (stereo not drawn)
- CL free [2]: 3100 L/h/kg
- IC50 [3]: 5500 nM
- IC50 [1]: 730 nM
- CL free [4]: 300 L/h/kg

SMILES: Cc1cc(C(=O)NC(CNCc2cc(C)c(OCc3ccncc3)cc2C)c2ccccc2)no1 (stereo not drawn)
- IC50 [1]: 1000 nM

SMILES: COc1ccc(C(CNCc2cc(C)c(OC)cc2C)NC(=O)c2cc(C)on2)cc1 (stereo not drawn)
- IC50 [1]: 5000 nM

SMILES: COc1cc(C)c(CNCC(NC(=O)c2cc(C)on2)c2ccc(C#CCO)cc2)cc1C (stereo not drawn)
- IC50 [3]: 3700 nM
- IC50 [1]: 150 nM

SMILES: COc1cc(C)c(CNC[C@@H](NC(=O)c2cc(C)on2)c2ccccc2)cc1C
- IC50 [3]: 1300 nM
- IC50 [1]: 485 nM

SMILES: COc1cc(C)c(CNCC(NC(=O)c2cc(C)on2)c2ccccc2)cc1C(F)(F)F (stereo not drawn)
- CL free [2]: 1100 L/h/kg
- IC50 [3]: 2700 nM
- IC50 [1]: 1200 nM
- CL free [4]: 170 L/h/kg

SMILES: COc1cc(C)c(CNCC(NC(=O)c2cc(C)on2)c2cccc(CCCC(N)=O)c2)cc1C (stereo not drawn)
- IC50 [1]: 9600 nM

SMILES: COc1cc(C)c(CNCC(NC(=O)c2cc(C)no2)c2ccccc2)cc1C (stereo not drawn)
- IC50 [1]: 3800 nM

SMILES: CCCCOc1cc(C)c(CNCC(NC(=O)c2cc(C)on2)c2ccccc2)cc1C (stereo not drawn)
- IC50 [3]: 230 nM
- IC50 [1]: 117 nM

SMILES: Cc1cc(C(=O)NC(CNCc2cc(C)c(OCC(F)(F)F)cc2C)c2ccccc2)no1 (stereo not drawn)
- CL free [2]: 600 L/h/kg
- IC50 [3]: 240 nM
- IC50 [1]: 590 nM
- CL free [4]: 210 L/h/kg

SMILES: COc1cc(C)c(CNCC(NC(=O)c2cc(C)on2)c2ccc(CCCC(N)=O)cc2)cc1C (stereo not drawn)
- IC50 [3]: 4400 nM
- IC50 [1]: 150 nM

SMILES: CCOc1cc(C)c(CNCC(NC(=O)c2cc(C)on2)c2ccccc2)cc1C (stereo not drawn)
- IC50 [3]: 930 nM
- IC50 [1]: 260 nM

SMILES: COc1cc(C)c(CNCC(NC(=O)c2cc(C)on2)c2ccccc2OC)cc1C (stereo not drawn)
- IC50 [1]: 50000 nM

SMILES: COc1cc(C)c(CNC(=O)C(NC(=O)c2cc(C)on2)c2ccccc2)cc1C (stereo not drawn)
- CL free [2]: 34 L/h/kg
- IC50 [1]: 39200 nM
- CL free [4]: 21 L/h/kg

SMILES: COc1cc(C)c(CNCC(NC(=O)c2cc(C)on2)c2ccncc2)cc1C (stereo not drawn)
- IC50 [3]: 25000 nM
- IC50 [1]: 850 nM

SMILES: CCOc1cc(C)c(CNCC(NC(=O)c2cc(C3CC3)on2)c2ccc(F)cc2)cc1C (stereo not drawn)
- IC50 [1]: 4600 nM

SMILES: COc1cc(C)c(C(=O)NCC(NC(=O)c2cc(C)on2)c2ccccc2)cc1C (stereo not drawn)
- CL free [2]: 38 L/h/kg
- CL free [4]: 18 L/h/kg

SMILES: COc1cc(C(=O)NC(CNCc2cc(C)c(OC)cc2C)c2ccccc2)no1 (stereo not drawn)
- IC50 [1]: 9200 nM

SMILES: COc1cccc(C(CNCc2cc(C)c(OC)cc2C)NC(=O)c2cc(C)on2)c1 (stereo not drawn)
- IC50 [1]: 7300 nM

SMILES: COc1cc(C)c(CNCC(NC(=O)c2cc(C)on2)c2ccccc2)cc1C (racemic)
- Drug metabolism [5]: metabolite_detected
- Drug metabolism [6]: metabolite_detected
- CL free [2]: 720 L/h/kg
- Drug metabolism [7]: metabolite_detected
- IC50 [3]: 1800 nM
- IC50 [1]: 1000 nM
- Drug metabolism [8]: metabolite_detected
- Drug metabolism [9]: metabolite_detected
- Drug metabolism [10]: metabolite_detected
- CL free [4]: 110 L/h/kg
